Data: PubChem BioAssay (NCI)
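Tested at 5 concentrations; 48 h exposure; 96-well plates; endpoints linearly interpolated, else capped at highest concentration. The concentration for 50% growth inhibition is given as GI50. TGI: total growth inhibition.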

Columns and labels:
Test in all cases: growth of human tumour cells (NCI), 48 h
A498 renal = tested on: A498 renal
ACHN renal = tested on: ACHN renal
IGROV1 ovarian = tested on: IGROV1 ovarian
SF-295 CNS = tested on: SF-295 CNS
SF-539 CNS = tested on: SF-539 CNS
SW-620 colon = tested on: SW-620 colon
TK-10 renal = tested on: TK-10 renal
U251 CNS = tested on: U251 CNS
MCF7 breast = tested on: MCF7 breast
T-47D breast = tested on: T-47D breast

SMILES	GI50 (A498 renal)	TGI (A498 renal)	GI50 (ACHN renal)	TGI (ACHN renal)	GI50 (IGROV1 ovarian)	TGI (IGROV1 ovarian)	GI50 (SF-295 CNS)	TGI (SF-295 CNS)	GI50 (SF-539 CNS)	TGI (SF-539 CNS)	GI50 (SW-620 colon)	TGI (SW-620 colon)	GI50 (TK-10 renal)	TGI (TK-10 renal)	GI50 (U251 CNS)	TGI (U251 CNS)	GI50 (MCF7 breast)	TGI (MCF7 breast)	GI50 (T-47D breast)	TGI (T-47D breast)
C[CH2][Sn]([CH2]C)([O]C(=O)c1ccc(F)cc1)[O][Sn]([CH2]C)([CH2]C)[O]C(=O)c1ccc(F)cc1	16.4 µM	30 µM	79.8 µM	> 100 µM	> 100 µM	> 100 µM	> 100 µM	> 100 µM	67.5 µM	> 100 µM	22.8 µM	45.5 µM	23.5 µM	62.3 µM	29.8 µM	> 100 µM				
COC1CC(OC)C(O)C(CO)O1 (centres undefined)				> 100 µM		> 100 µM		> 100 µM		> 100 µM		> 100 µM		> 100 µM		> 100 µM				
CCOC(=O)NC1CC2CCC1(OC)C=C2C (centres undefined)		> 100 µM		> 100 µM		> 100 µM		> 100 µM		> 100 µM		> 100 µM		> 100 µM		> 100 µM				
COc1cnc2c(c1)C(=O)c1c-2n(CCCNC(C)C)c(=O)c2cc([N+](=O)[O-])ccc12			0.0267 µM	0.121 µM	0.115 µM	1.43 µM	0.0309 µM	0.221 µM	0.0519 µM	0.204 µM	0.0393 µM	0.643 µM	0.134 µM	0.318 µM	0.0303 µM	0.158 µM	0.0115 µM	1.07 µM	0.0393 µM	1.14 µM
C=C[C@H]1C=Cc2c(OC)cccc2[C@@H]1COP1(=S)NC(C)C(c2ccccc2)O1 (some centres undefined)						> 100 µM		> 100 µM		> 100 µM		> 100 µM		> 100 µM		> 100 µM				
COC(=O)Cc1cc(=O)n2c([nH]c3ccccc32)c1C#N		> 100 µM		> 100 µM		> 100 µM		> 100 µM		> 100 µM		> 100 µM		> 100 µM		> 100 µM				
c1ccc2c(CNCCCCCCCCCCCCNCc3cccc4ccccc34)cccc2c1		19.7 µM		3.7 µM		3.39 µM		58.2 µM		3 µM		3.2 µM		4.74 µM		3.17 µM				
C=C1C(=O)O[C@H]2[C@H]1CC/C(COC(=O)NCc1cc(OC)cc(OC)c1)=C\CC[C@@]1(C)O[C@@H]21	2.11 µM	5.8 µM	1.29 µM	2.8 µM	2.12 µM	7.66 µM	7.78 µM	22.3 µM	1.54 µM	3.02 µM	1.12 µM	3.97 µM	1.66 µM	3.18 µM	3.16 µM	11.1 µM			1.85 µM	4.83 µM
c1ccc2c3c(ccc2c1)-c1c(ccc2c(NCCCCN4CCCCC4)cccc12)C3			1.61 µM	2.99 µM	2.09 µM	8.03 µM	1.78 µM	3.35 µM	1.79 µM	3.44 µM			2.24 µM	4.57 µM	1.77 µM	3.16 µM	10.8 µM	30.3 µM	4.27 µM	> 100 µM
Cc1ccccc1NC(=O)c1ccc([N+](=O)[O-])cc1		> 100 µM		> 100 µM		> 100 µM		> 100 µM		> 100 µM		> 100 µM		> 100 µM		> 100 µM				
CCCCCCCCCCCCC(CCCCCCCCCCCC)OP(=O)(O)O		52.8 µM		> 100 µM		> 100 µM		> 100 µM		> 100 µM		> 100 µM		> 100 µM		> 100 µM				
O=C(Cc1ccccc1)NS(=O)(=O)c1ccccc1		> 100 µM		> 100 µM		> 100 µM		> 100 µM		> 100 µM		> 100 µM		> 100 µM		> 100 µM				
Cc1ccc(N2C(=O)C(Cl)=C(Cl)C2=O)cc1		> 100 µM		34.1 µM		43.4 µM		> 100 µM		64.2 µM		34.8 µM				> 100 µM				
CC1=Nc2ccccc2C12C(c1ccccc1)C(c1ccccc1)C(=O)N1c3ccccc3CC12 (centres undefined)		> 100 µM		> 100 µM		> 100 µM		> 100 µM		> 100 µM		> 100 µM		> 100 µM		> 100 µM				
CCOC(=O)C(C(=O)OCC)=c1sc(=C(C(=O)OCC)C(=O)OCC)s1				> 100 µM		> 100 µM		> 100 µM				> 100 µM		> 100 µM						
